Laboratory results from PubChem BioAssay AID330 (DTP/NCI, 2004).
Several values for one entry are separate records, joined by “and”; a condition that tells them apart may be missing. Equal entries are not always repeated. Toxic doses and inconclusive results are not listed. Square brackets hold non-standard residues; d marks the D form. Peptide text beside a SMILES is read from it. ξ: configuration not given here. ξE = NC(CCC(=O)O)C(=O)O

Test system: P388 leukemia ip, CD2F1 mice, survival T/C
Experiment: NCI In Vivo Anticancer Drug Screen. Data for tumor model P388 Leukemia (intraperitoneal) in CD2F1 (CDF1) mice
Conditions: endpoint: median survival time, higher = longer survival
Procedure, shortened: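 Mice carrying the transplanted tumor received test compound or vehicle. Survival was recorded in each group, and the value is the treated-group measurement divided by that of the vehicle-treated control group.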

[1] = dose: 60.0 mg/kg/injection, schedule: Q01DX005 (ip), vehicle: saline with Tween-80
[2] = dose: 120.0 mg/kg/injection, schedule: Q01DX005 (ip), vehicle: saline with Tween-80
[3] = dose: 240.0 mg/kg/injection, schedule: Q01DX005 (ip), vehicle: saline with Tween-80
[4] = dose: 50.0 mg/kg/injection, schedule: Q01DX005 (ip), vehicle: saline with Tween-80
[5] = dose: 100.0 mg/kg/injection, schedule: Q01DX005 (ip), vehicle: saline with Tween-80
[6] = dose: 200.0 mg/kg/injection, schedule: Q01DX005 (ip), vehicle: saline with Tween-80

SMILES: CCOC(=O)C(CC(C)C)NC(=O)C(Cc1ccc(N(CCCl)CCCl)cc1)NC(C)=O (stereo not given)
- T/C (dose: 0.25 mg/kg/injection, schedule: Q01DX009 (ip), vehicle: saline): 101 % of control
- T/C (dose: 0.5 mg/kg/injection, schedule: Q01DX009 (ip), vehicle: saline): 115 % of control
- T/C (dose: 1.0 mg/kg/injection, schedule: Q01DX009 (ip), vehicle: saline): 111 % of control
- T/C (dose: 2.0 mg/kg/injection, schedule: Q01DX009 (ip), vehicle: Klucel (hydroxypropylcellulose) (HPC)): 109 % of control
- T/C (dose: 2.0 mg/kg/injection, schedule: Q01DX009 (ip), vehicle: olive oil, sesame oil, peanut oil): 111 % of control
- T/C (dose: 2.0 mg/kg/injection, schedule: Q01DX009 (ip), vehicle: saline with Tween-80): 100 % of control
- T/C (dose: 4.0 mg/kg/injection, schedule: Q01DX009 (ip), vehicle: Klucel (hydroxypropylcellulose) (HPC)): 110 % of control
- T/C (dose: 4.0 mg/kg/injection, schedule: Q01DX009 (ip), vehicle: olive oil, sesame oil, peanut oil): 120 % of control
- T/C (dose: 4.0 mg/kg/injection, schedule: Q01DX009 (ip), vehicle: saline with Tween-80): 100 % of control
- T/C (dose: 8.0 mg/kg/injection, schedule: Q01DX009 (ip), vehicle: Klucel (hydroxypropylcellulose) (HPC)): 120 % of control
- T/C (dose: 8.0 mg/kg/injection, schedule: Q01DX009 (ip), vehicle: saline with Tween-80): 109 % of control
- T/C (dose: 8.0 mg/kg/injection, schedule: Q01DX009 (ip), vehicle: saline): 163 % of control
- T/C (dose: 12.5 mg/kg/injection, schedule: Q01DX005 (iv), vehicle: Klucel (hydroxypropylcellulose) (HPC)): 116 % of control
- T/C (dose: 16.0 mg/kg/injection, schedule: Q01DX009 (ip), vehicle: saline with Tween-80): 111 % of control
- T/C (dose: 16.0 mg/kg/injection, schedule: Q01DX009 (ip), vehicle: saline): 163 % of control and 225 % of control
- T/C (dose: 16.0 mg/kg/injection, schedule: Q04DX003 (ip), vehicle: saline with Tween-80): 152 % of control
- T/C (dose: 18.9 mg/kg/injection, schedule: Q04DX003 (ip), vehicle: saline with Tween-80): 152 % of control
- T/C (dose: 25.0 mg/kg/injection, schedule: Q01DX005 (ip), vehicle: Klucel (hydroxypropylcellulose) (HPC)): 174 % of control
- T/C (dose: 28.4 mg/kg/injection, schedule: Q04DX003 (ip), vehicle: saline with Tween-80): 161 % of control
- T/C (dose: 32.0 mg/kg/injection, schedule: Q01DX009 (ip), vehicle: Klucel (hydroxypropylcellulose) (HPC)): 172 % of control
- T/C (dose: 32.0 mg/kg/injection, schedule: Q01DX009 (ip), vehicle: olive oil, sesame oil, peanut oil): 175 % of control
- T/C (dose: 32.0 mg/kg/injection, schedule: Q01DX009 (ip), vehicle: saline with Tween-80): 117 % of control
- T/C (dose: 32.0 mg/kg/injection, schedule: Q04DX003 (ip), vehicle: saline with Tween-80): 189 % of control
- T/C (dose: 42.6 mg/kg/injection, schedule: Q04DX003 (ip), vehicle: saline with Tween-80): 172 % of control
- T/C (dose: 50.0 mg/kg/injection, schedule: Q01DX005 (ip), vehicle: Klucel (hydroxypropylcellulose) (HPC)): 230 % of control
- T/C (dose: 50.0 mg/kg/injection, schedule: Q01DX005 (iv), vehicle: Klucel (hydroxypropylcellulose) (HPC)): 156 % of control
- T/C (dose: 64.0 mg/kg/injection, schedule: Q01DX009 (ip), vehicle: Klucel (hydroxypropylcellulose) (HPC)): 151 % of control
- T/C (dose: 64.0 mg/kg/injection, schedule: Q04DX003 (ip), vehicle: saline with Tween-80): 188 % of control and 211 % of control
- T/C (dose: 96.0 mg/kg/injection, schedule: Q04DX003 (ip), vehicle: saline with Tween-80): 170 % of control
- T/C (dose: 128.0 mg/kg/injection, schedule: Q01DX009 (ip), vehicle: saline with Tween-80): 152 % of control
- T/C (dose: 256.0 mg/kg/injection, schedule: Q01DX009 (ip), vehicle: other): 151 % of control
- T/C (dose: 256.0 mg/kg/injection, schedule: Q01DX009 (ip), vehicle: saline with Tween-80): 152 % of control and 157 % of control
- T/C (dose: 512.0 mg/kg/injection, schedule: Q01DX009 (ip), vehicle: other): 179 % of control
- T/C (dose: 512.0 mg/kg/injection, schedule: Q01DX009 (ip), vehicle: saline with Tween-80): 185 % of control

SMILES: CSc1nc(Cl)c(Cl)cc1Cl
- T/C (dose: 50.0 mg/kg/injection, schedule: Q01DX009 (ip), vehicle: saline with Tween-80): 100 % of control
- T/C (dose: 100.0 mg/kg/injection, schedule: Q01DX009 (ip), vehicle: saline with Tween-80): 97 % of control
- T/C (dose: 200.0 mg/kg/injection, schedule: Q01DX009 (ip), vehicle: saline with Tween-80): 91 % of control

SMILES: S=C(S)N(Cc1ccccc1)Cc1ccccc1 (tested in a mixture with another compound)
- T/C [1]: 105 % of control
- T/C [2]: 105 % of control
- T/C [3]: 101 % of control

SMILES: CCOC(=O)C/C(O)=C(\N=Nc1nc[nH]c1C(N)=O)C(=O)OCC
- T/C [4]: 105 % of control
- T/C [5]: 91 % of control
- T/C [6]: 97 % of control

SMILES: CC1(C)CCC2(C)N(c3ccccc3)C(=O)ON12 (stereo not given)
- T/C [4]: 102 % of control
- T/C [5]: 100 % of control
- T/C [6]: 99 % of control

SMILES: Cc1ccccc1C(C)(O)Cc1nccn1Cc1ccccc1 (stereo not given)
- T/C [1]: 99 % of control
- T/C [2]: 104 % of control
- T/C [3]: 96 % of control

SMILES: NCC(=O)NCC(=O)NC(CCC(=O)O)C(=O)O (stereo not drawn) (H-Gly-Gly-[ξE]-OH)
- T/C (dose: 50.0 mg/kg/injection, schedule: Q01DX005 (ip), vehicle: saline): 100 % of control
- T/C (dose: 100.0 mg/kg/injection, schedule: Q01DX005 (ip), vehicle: saline): 101 % of control
- T/C (dose: 200.0 mg/kg/injection, schedule: Q01DX005 (ip), vehicle: saline): 104 % of control

SMILES: Clc1ccnc2ccc3ncccc3c12
- T/C (dose: 3.12 mg/kg/injection, schedule: Q04DX002 (ip), vehicle: saline with Tween-80): 113 % of control
- T/C (dose: 6.25 mg/kg/injection, schedule: Q04DX002 (ip), vehicle: saline with Tween-80): 103 % of control
- T/C (dose: 12.5 mg/kg/injection, schedule: Q04DX002 (ip), vehicle: saline with Tween-80): 100 % of control
